According to patent US11319315B2, “Cyclohexyl acid triazole azoles as LPA antagonists” (BRISTOL-MYERS SQUIBB COMPANY, priority 2017, dated 2022):
Read-outs that look alike come from different tables or passages of the source.

Molecular target: T1, human LPA1 (Homo sapiens, UniProt Q92633)
T1 construct: expressed in transfected cells; host or cells: Chinese hamster ovary (CHO) cells
Test: LPA1 functional antagonist assay (LPA-induced calcium flux in CHO cells overexpressing human LPA1)
Type: cell-based
Conditions: read-out: hLPA1 IC50
How it was run: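 Calcium flux was triggered by 10 nM LPA after 20 min room-temperature compound pre-incubation (final 0.08 nM to 5 μM, 0.5% DMSO) in human LPA1-overexpressing CHO cells carrying calcium dye. Buffer: HBSS with Ca/Mg, 20 mM HEPES, 0.1% fatty-acid-free BSA; IC50s from 4-parameter logistic fits.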

[1] = inhibition of calcium flux induced by 10 nM LPA, CHO cells overexpressing human LPA1

T1 sequence (Q92633 whole entry): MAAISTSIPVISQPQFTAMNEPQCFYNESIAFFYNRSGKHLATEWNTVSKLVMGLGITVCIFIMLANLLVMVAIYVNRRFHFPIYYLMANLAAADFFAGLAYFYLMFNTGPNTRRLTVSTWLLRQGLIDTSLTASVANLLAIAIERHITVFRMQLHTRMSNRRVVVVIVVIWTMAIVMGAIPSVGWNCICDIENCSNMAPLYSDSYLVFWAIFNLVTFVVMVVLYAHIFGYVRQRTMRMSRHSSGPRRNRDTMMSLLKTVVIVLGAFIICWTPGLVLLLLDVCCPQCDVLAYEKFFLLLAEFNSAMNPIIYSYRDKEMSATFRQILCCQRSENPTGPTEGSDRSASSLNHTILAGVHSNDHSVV

Row | Structure (SMILES) | IC50 [1] | IC50
1 | Cc1nc(-c2nnn(C)c2Cn2nnnc2CC2CC2)ccc1O[C@H]1CCC[C@H](C(=O)O)C1 [Example 106, (1S,3S)-3-((6-(5-((5-(cyclopropylmethyl)-1H-tetrazol-1-yl)methyl)-1-methyl-1H-1,2,3-triazol-4-yl)-2-methylpyridin-3-yl)oxy)cyclohexane-1-carboxylic acid] | 147 nM | 
2 | CCOCCc1nc(NCc2c(-c3ccc(O[C@H]4CCC[C@H](C(=O)O)C4)c(C)n3)nnn2C)no1 [Example 213, (1S,3S)-3-((6-(5-(((5-(2-ethoxy-ethyl)-1,2,4-oxadiazol-3-yl)amino)methyl)-1-methyl-1H-1,2,3-triazol-4-yl)-2-methylpyridin-3-yl)oxy)cyclohexane-1-carboxylic acid] | 98 nM | 
3 | Cc1nc(-c2nnn(C)c2Cn2nnc(C3CC3)n2)ccc1O[C@H]1CCC[C@H](C(=O)O)C1 [Example 412, (1S,3S)-3-((6-(5-((5-cyclopropyl-2H-tetrazol-2-yl)methyl)-1-methyl-1H-1,2,3-triazol-4-yl)-2-methyl-pyridin-3-yl)oxy)cyclohexane-1-carboxylic acid] |  | 384 nM
4 | Cc1nc(-c2nnn(C)c2Cc2nnn(CCC3CC3)n2)ccc1O[C@H]1CCC[C@H](C(=O)O)C1 [Example 400, (1S,3S)-3-{[6-(5-{[2-(2-cyclo-propylethyl)-2H-1,2,3,4-tetrazol-5-yl]methyl}-1-methyl-1H-1,2,3-triazol-4-yl)-2-methylpyridin-3-yl]oxy}cyclohexane-1-carboxylic acid] | 129 nM | 128 nM
5 | Cn1nnc(-c2ccc(O[C@H]3CCC[C@H](C(=O)O)C3)c(C#N)n2)c1Cn1cc(CC2CC2)nn1 [Example 92] | 110 nM | 
6 | CC(C)CCc1nc(NCc2c(-c3ccc(O[C@H]4CCC[C@H](C(=O)O)C4)cn3)nnn2C)no1 [Example 285, (1 S,3 S)-3-((6-(5-(((5-isopentyl-1,2,4-oxadiazol-3-yl)amino)methyl)-1-methyl-1H-1,2,3-triazol-4-yl)pyridin-3-yl)oxy)cyclohexane-1-carboxylic acid] | 93 nM | 
7 | COCCc1nc(NCc2c(-c3ccc(O[C@H]4CCC[C@H](C(=O)O)C4)c(C)n3)nnn2C)no1 [Example 172] | 120 nM | 
8 | Cc1nc(-c2nnn(C)c2CNc2nc(CC(C)C)ns2)ccc1O[C@H]1CCC[C@H](C(=O)O)C1 [Example 102] | 98 nM | 
9 | Cc1nc(-c2nnn(C)c2CNc2nc(C3CCCC3)ns2)ccc1O[C@H]1CCC[C@H](C(=O)O)C1 [Example 100] | 77 nM | 
10 | Cc1nc(-c2nnn(C)c2Cn2nnc(N3CCCC3)n2)ccc1O[C@H]1CCC[C@H](C(=O)O)C1 [Example 312, (1S,3S)-3-{[2-methyl-6-(1-methyl-5-{[5-(pyrrolidin-1-yl)-2H-1,2,3,4-tetrazol-2-yl]methyl}-1H-1,2,3-triazol-4-yl)pyridin-3-yl]oxy}cyclohexane-1-carboxylic acid] | 234 nM | 
11 | Cc1nc(-c2nnn(C)c2Cn2nnc(OCC3CC(F)(F)C3)n2)ccc1O[C@H]1CCC[C@@H](C(=O)O)C1 [Example 334, (1R,3S)-3-({6-[5-({5-[(3,3-difluoro-cyclobutyl)methoxy]-2H-1,2,3,4-tetrazol-2-yl}methyl)-1-methyl-1H-1,2,3-triazol-4-yl]-2-methylpyridin-3-yl}oxy)cyclohexane-1-carboxylic acid] | 258 nM | 
12 | Cc1nc(-c2nnn(C)c2Cn2nnnc2OCC2CC2)ccc1O[C@H]1CCC[C@H](C(=O)O)C1 [Example 351, (1S,3S)-3-{[6-(5-{[5-(cyclopropyl-methoxy)-1H-1,2,3,4-tetrazol-1-yl]methyl}-1-methyl-1H-1,2,3-triazol-4-yl)-2-methylpyridin-3-yl]oxy}cyclohexane-1-carboxylic acid] | 152 nM | 
13 | CCC(C)n1cnc(OCc2c(-c3ccc(O[C@H]4CCC[C@H](C(=O)O)C4)c(C)n3)nnn2C)n1 (some centres unmarked) [Example 142] | 509 nM | 
14 | Cc1nc(-c2nnn(C)c2CNc2nc(C)c(C)s2)ccc1O[C@H]1CCC[C@H](C(=O)O)C1 [Example 26] | 3650 nM | 
15 | COc1cccc(Cc2noc(Cc3c(-c4ccc(O[C@H]5CCC[C@H](C(=O)O)C5)c(C)n4)nnn3C)n2)c1 [Example 242, (1S,3S)-3-((6-(5-((3-(3-methoxy-benzyl)-1,2,4-oxadiazol-5-yl)methyl)-1-methyl-1H-1,2,3-triazol-4-yl)-2-methylpyridin-3-yl)oxy)cyclohexane-1-carboxylic acid] | 2020 nM | 
16 | Cc1ccccc1-n1nnc(NCc2c(-c3ccc(O[C@H]4CCC[C@H](C(=O)O)C4)c(C)n3)nnn2C)n1 [Example 381, (1S,3S)-3-((2-methyl-6-(1-methyl-5-(((2-(o-tolyl)-2H-tetrazol-5-yl)amino)methyl)-1H-1,2,3-triazol-4-yl)pyridin-3-yl)oxy)cyclohexane-1-carboxylic acid] |  | 313 nM
17 | CCCOc1nnn(Cc2c(-c3ccc(O[C@H]4CCC[C@@H](C(=O)O)C4)c(C)n3)nnn2C)n1 [Example 347, (1R,3S)-3-[(2-methyl-6-{1-methyl-5-[(5-propoxy-2H-1,2,3,4-tetrazol-2-yl)methyl]-1H-1,2,3-triazol-4-yl}pyridin-3-yl)oxy]cyclohexane-1-carboxylic acid] | 270 nM | 
18 | Cc1nc(-c2nnn(C)c2CNc2cnn(C3CCC3)n2)ccc1O[C@H]1CCC[C@H](C(=O)O)C1 [Example 30] | 91 nM | 
19 | Cc1nc(-c2nnn(C)c2Cn2nnc(OC3CCC3)n2)ccc1O[C@H]1CCC[C@@H](C(=O)O)C1 [Example 335, (1R,3S)-3-[(6-{5-[(5-cyclobutoxy-2H-1,2,3,4-tetrazol-2-yl)methyl]-1-methyl-1H-1,2,3-triazol-4-yl}-2-methylpyridin-3-yl)oxy]cyclo-hexane-1-carboxylic acid] | 405 nM | 

More lines, now with the values ahead:

Row | IC50 [1] | IC50 | Structure (SMILES)
20 | 38 nM |  | Cc1nc(-c2nnn(C)c2Cn2nnc(Cc3ccc(Cl)cc3)n2)ccc1O[C@H]1CCC[C@H](C(=O)O)C1 [Example 324, (1S,3S)-3-((6-(5-((5-(4-chloro-benzyl)-2H-tetrazol-2-yl)methyl)-1-methyl-1H-1,2,3-triazol-4-yl)-2-methylpyridin-3-yl)oxy)cyclo-hexane-1-carboxylic acid]
21 | 63 nM |  | CCCO[C@H](C)c1nc(NCc2c(-c3ccc(O[C@H]4CCC[C@H](C(=O)O)C4)c(C)n3)nnn2C)no1 [Example 219, (1S,3S)-3-((2-methyl-6-(1-methyl-5-(((5-((R)-1-propoxyethyl)-1,2,4-oxadiazol-3-yl)amino)methyl)-1H-1,2,3-triazol-4-yl)pyridin-3-yl)oxy)cyclohexane-1-carboxylic acid]
22 | 4 nM |  | Cc1nc(-c2nnn(C)c2CNc2noc(CC3CCC3)n2)ccc1O[C@H]1CCC[C@H](C(=O)O)C1 [Example 72]
23 | 28 nM |  | Cc1nc(-c2nnn(C)c2Cc2noc(C(C)C3CC3)n2)ccc1O[C@H]1CCC[C@H](C(=O)O)C1 (mixture of isomers) [Example 239, (1S,3S)-3-((6-(5-((5-(1-cyclopropyl-ethyl)-1,2,4-oxadiazol-3-yl)methyl)-1-methyl-1H-1,2,3-triazol-4-yl)-2-methylpyridin-3-yl)oxy)cyclohexane-1-carboxylic acid]
24 | 5 nM |  | Cc1nc(-c2nnn(C)c2CNc2noc(CCC3CCC3)n2)ccc1O[C@H]1CCC[C@H](C(=O)O)C1 [Example 166]
25 | 25 nM |  | Cc1nc(-c2nnn(C)c2COc2noc(C3CC3)n2)ccc1O[C@H]1CCC[C@H](C(=O)O)C1 [Example 134]
26 | 8 nM |  | CCCCc1nc(Cc2c(-c3ccc(O[C@H]4CCC[C@H](C(=O)O)C4)c(C)n3)nnn2C)no1 [Example 233, (1S,3S)-3-((6-(5-((5-butyl-1,2,4-oxadiazol-3-yl)methyl)-1-methyl-1H-1,2,3-triazol-4-yl)-2-methylpyridin-3-yl)oxy)cyclohexane-1-carboxylic acid]
27 | 31 nM |  | Cc1nc(-c2nnn(C)c2CNc2noc(CCC3(C)CC3)n2)ccc1O[C@H]1CCC[C@H](C(=O)O)C1 [Example 187]
28 | 7 nM |  | Cc1nc(-c2nnn(C)c2Cn2nnc(CC3CCCC3)n2)ccc1O[C@H]1CCC[C@H](C(=O)O)C1 [Example 331, (1S,3S)-3-((6-(5-((5-(cyclopentyl-methyl)-2H-tetrazol-2-yl)methyl)-1-methyl-1H-1,2,3-triazol-4-yl)-2-methylpyridin-3-yl)oxy)cyclohexane-1-carboxylic acid]
29 | 25 nM |  | Cc1nc(-c2nnn(C)c2CNc2noc(C(C)C3CC3)n2)ccc1O[C@H]1CCC[C@H](C(=O)O)C1 (some centres unmarked) [Example 194]
30 | 15 nM |  | CCCCc1nc(NCc2c(-c3ccc(O[C@H]4CCC[C@H](C(=O)O)C4)c(C)n3)nnn2C)no1 [Example 66]
31 | 13 nM |  | Cc1nc(-c2nnn(C)c2CNc2nc(C3CCC3)cs2)ccc1O[C@H]1CCC[C@H](C(=O)O)C1 [Example 13]
32 | 41 nM |  | Cc1nc(-c2nnn(C)c2Cn2nncc2CC2CC2)ccc1O[C@H]1CCC[C@H](C(=O)O)C1 [Example 263, (1S,3S)-3-((6-(5-((5-(cyclopropyl-methyl)-1H-1,2,3-triazol-1-yl)-methyl)-1-methyl-1H-1,2,3-triazol-4-yl)-2-methylpyridin-3-yl)oxy)-cyclohexane-1-carboxylic acid]
33 | 55 nM |  | Cc1nc(-c2nnn(C)c2CNc2noc(C3CC(F)C3)n2)ccc1O[C@H]1CCC[C@H](C(=O)O)C1 (some centres unmarked) [Example 190]
34 | 25 nM |  | Cc1nc(-c2nnn(C)c2CNc2noc(CC3CC3(F)F)n2)ccc1O[C@H]1CCC[C@H](C(=O)O)C1 (some centres unmarked) [Example 195]
35 | 33 nM |  | Cc1nc(-c2nnn(C)c2CNc2noc(C(C)C3CC3)n2)ccc1O[C@H]1CCC[C@H](C(=O)O)C1 (some centres unmarked) [Example 193]
36 | 57 nM |  | Cc1nc(-c2nnn(C)c2COc2ncn(CC3CC3)n2)ccc1O[C@H]1CCC[C@H](C(=O)O)C1 [Example 140]
37 | 61 nM |  | CCCc1cnn(Cc2c(-c3ccc(O[C@H]4CCC[C@H](C(=O)O)C4)c(C)n3)nnn2C)n1 [Example 270, (1S,3S)-3-((2-methyl-6-(1-methyl-5-((4-propyl-2H-1,2,3-triazol-2-yl)methyl)-1H-1,2,3-triazol-4-yl)pyridin-3-yl)oxy)cyclohexane-1-carboxylic acid]
